This is an account of results in PMC7955127, “Preclinical small molecule WEHI-7326 overcomes drug resistance and elicits response in patient-derived xenograft models of human treatment-refractory tumors” (Cell Death & Disease, 2021).

One data set has as its system 134111 HGSOC PDX. Kind of data set: HGSOC post-chemo PDX model 134111. In kind it is in vivo, NSG mice. The settings on record: 134111 post-taxane, cisplatin-refractory PDX; 20 mg/kg i.v. twice a week, 6 weeks. How it is done: Two to three mm ovarian tumor fragments were subcutaneously engrafted in the left flank of NSG mice and monitored by physical palpation for tumor growth and engraftment. Engrafted tumors were measured twice a week using digital Vernier calipers and maximum tumor diameter + perpendicular tumor length were digitally recorded into the Study Director software (v 3.0/4.0 StudyLog). Tumor volume was calculated automatically (tumor volume (mm^3) = 0.5236 x [larger diameter (mm) x smaller diameter (mm)^2]). Mice were randomized to treatment once their tumor volume reach 180–300 mm^3 and tumor measurements were performed twice a week up to 120 days or when the tumor volume reaches 700 mm^3.
Time to progressive disease (PD): Defined as the time (in days) from beginning of treatment to an increase in average tumor volume of >20% from the nadir (taken as the smallest average tumor volume recorded since treatment started or 200 mm^3 if nadir was <200 mm^3 as lesions smaller than this are difficult to measure with accuracy). Median time to harvest (TTH): Defined as the time (in days) from the beginning of treatment to day of harvest at 700 mm^3 and the median TTH was calculated and plotted using Kaplan-Meier curves. Based on ref. [27]. […]

For data set [1], the system named is MDA-MB-231, H1437, LoVo and PC3 cells. As to the kind of experiment: Anti-proliferative activity in a panel of cancer cell lines (CellTiterGlo, 72 h). In kind it is cell-based, human. The method, then: (§1) Cells were plated at a density of between 500 to 5000 cells per well for adherent cell lines depending on doubling time, and 15,000 cells per well for lymphoblastic leukemia cell lines, in a 96-well plate in 200 μl of growth media. Plates were incubated overnight at 37 °C before adding the inhibitors. Inhibitors were serially diluted from the stock solutions in complete medium and added to the cells. Incubation in the presence of inhibitors was continued for 72 days. Cell viability was assessed by the AlamarBlue (Invitrogen) or CellTiterBlue/Glo (Promega) method according to manufacturer’s instructions. The curve fits and IC50 values were generated in PRISM (GraphPad, San Diego, CA).

Another data set deals with 322 T TNBC PDX. As to the kind of experiment: TNBC PDX model 322T. In kind it is in vivo, NOD-SCID-IL2Rγc–/– mice. How it is done: Cohorts of about 30 female mice were seeded with thawed single cell suspensions of early passage human breast tumors (passage 2 or 3). Briefly, 150,000–250,000 cells were resuspended in 10 µl of transplantation buffer (50% fetal calf serum, 10% of a 0.04% trypan blue solution and 40% PBS) and growth-factor-reduced Matrigel [BD] at a ratio of 3:1, and injected into the cleared mammary fat pads of 3- or 4-week-old NOD-SCID-IL2Rγc–/– female mice. Mice were monitored for tumor development three times weekly and tumor size measured using digital Vernier calipers. Tumor volume was estimated by measuring the minimum and maximum tumor diameters using the formula: (minimum diameter)^2 x (maximum diameter)/2. Once tumors arose, mice were randomized into treatment arms. Treatment was initiated when the tumor volume reached 80–120 mm^3. Randomization and tumor measurements were managed using the Study Director software (v 3.0, studylog). Mice were sacrificed at the first measurement where tumor volume exceeded 600 mm^3, or if their health deteriorated for reasons other than disease progression or drug toxicity (censored event).
Mice were treated with either docetaxel (10 mg/kg; i.p.; once), cisplatin (4 mg/kg; i.p.; once) or WEHI-7326 (20 mg/kg; twice a week (Monday and Thursday); i.v.). Vehicle treated mice were administered with the vehicle for WEHI-7326. Docetaxel was resuspended at 2 mg/ml in PBS:Tween-80:ethanol = 90:5:5 (v/v/v). WEHI-7326 was resuspended at 2 mg/ml in saline.

A further data set is described as follows: Plasma protein binding. As to conditions: mouse plasma. In kind it is in vitro ADME. An excerpt: a Measured physicochemical and solubility data for WEHI-7326. […] Microsomal-predicted EH values are included.
In data set [2] the test system is LoVo (colon carcinoma) xenograft. Kind of data set: LoVo tumor xenograft in nude mice. In kind it is in vivo, Balb/c nude mice. The method, then: (§2) LoVo (4 × 10^6), PC3 (3 × 10^6) or MDA-MB-231 LNA DRE (10^6) cells were collected by trypsination and injected with 50 μl 1:1 PBS:Matrigel (v/v) subcutaneously on the right flank of 18 female (LoVo), 40 male (PC3) or into 4th mammary fat pad of 40 female (MDA231) Balb/c nude mice. Tumor growth was monitored and average tumor size at commencement of dosing was 100 mm^3. Mice were randomized into 3 arms of each 5 (LoVo), 10 (PC3) or 12 (MDA23) mice respectively and treatment with vehicle (saline), WEHI-7326 (biweekly) or docetaxel (weekly) was administered via tail vein injection. Tumor volumes were measured at least twice weekly with calipers and the experiments were terminated when tumors in the control group started exceeding 1500 mm^3. For LoVo, both vehicle and 25 mg/kg WEHI-7326 groups were harvested 24 h, but 20 mg/kg WEHI-7326 group harvested 1 h post final dose. For PC3, docetaxel group was not harvested in an attempt to grow out resistant tumors.

Data set [3] concerns PC3 (human prostate carcinoma) xenograft. Kind of data set: PC3 tumor xenograft in nude mice. In kind it is in vivo, Balb/c nude mice. As to conditions: male nude mice, day 17, biweekly i.v. The method, then:
as §2

The next data set relates to U87MGΔ2–7. Kind of data set: Cell growth inhibition assay, U87MGΔ2–7. In kind it is cell-based. The settings on record: Homo sapiens; U87MGΔ2–7, glioblastoma expressing activated EGFR; 72 h viability assay, CellTiterGlo; mean of 3 ± SEM; read-out: IC50 (inhibition of cellular proliferation). The method, then:
as §1, with “Incubation in the presence of inhibitors was continued for 72 days.” left out
On the technique in general: Cellular ATP, detected with luciferase, serves as a proxy for viable cell number.

With `COc1ccc(CNc2nc(NCc3ccc(CN)cc3)nc(NN3CC(=O)NC3=O)n2)cc1` [WEHI-7326], in the data set with 134111 HGSOC PDX, the Tumor response entry was “ineffective”. In addition, in data set [1], the “Anti-proliferative activity relative to myoseverin B” value is reported as “over 10 fold”. In the data set with 322 T TNBC PDX (322 T PDX mice, 20 mg/kg i.v. twice a week, n = 10), the “Adverse effects in treatment arm” value is given as 1 sick, 1 found dead. For the same compound, the Survival time in the data set with 322 T TNBC PDX (322 T PDX, docetaxel 10 mg/kg i.p. once, WEHI-7326 20 mg/kg i.v. biweekly) is on record as 18 days. Moreover, in the data set “Plasma protein binding”, the Protein binding was determined as 61 % bound. Moreover, the Body weight loss in data set [2] (LoVo xenograft mice, 25 mg/kg, 9 doses in total) is ~ 6%. In data set [2] (LoVo xenograft, 25 mg/kg biweekly i.v.), the Tumor growth inhibition turned out to be 60%. Besides, in data set [3], the “Tumor growth inhibition (TGI)” value was ~ 75%. Besides, the IC50 in the data set with U87MGΔ2–7 stood at 6.1 ± 1.6 nM.
